Consider 10 compounds from EP4268824A1 (Manros Therapeutics, priority 2022, dated 2023).

Molecules are shown by their SMILES. Read-outs that look alike come from different tables or passages of the source.

The term IC50 denotes the midpoint of a concentration-inhibition curve. What is called chromatographic logD is lipophilicity estimated from chromatographic retention. A higher chromatographic logD goes with higher lipophilicity.

In one data set the target is T1, F508del-CFTR (Homo sapiens, UniProt P13569, DEL508-508).
T1 construct: expressed in transfected cells; host or cells: CFBE41o- cells (CFBE F508del-CFTR), puromycin-selected
T1 sequence (P13569 with tags, fused parts or gaps DEL508-508): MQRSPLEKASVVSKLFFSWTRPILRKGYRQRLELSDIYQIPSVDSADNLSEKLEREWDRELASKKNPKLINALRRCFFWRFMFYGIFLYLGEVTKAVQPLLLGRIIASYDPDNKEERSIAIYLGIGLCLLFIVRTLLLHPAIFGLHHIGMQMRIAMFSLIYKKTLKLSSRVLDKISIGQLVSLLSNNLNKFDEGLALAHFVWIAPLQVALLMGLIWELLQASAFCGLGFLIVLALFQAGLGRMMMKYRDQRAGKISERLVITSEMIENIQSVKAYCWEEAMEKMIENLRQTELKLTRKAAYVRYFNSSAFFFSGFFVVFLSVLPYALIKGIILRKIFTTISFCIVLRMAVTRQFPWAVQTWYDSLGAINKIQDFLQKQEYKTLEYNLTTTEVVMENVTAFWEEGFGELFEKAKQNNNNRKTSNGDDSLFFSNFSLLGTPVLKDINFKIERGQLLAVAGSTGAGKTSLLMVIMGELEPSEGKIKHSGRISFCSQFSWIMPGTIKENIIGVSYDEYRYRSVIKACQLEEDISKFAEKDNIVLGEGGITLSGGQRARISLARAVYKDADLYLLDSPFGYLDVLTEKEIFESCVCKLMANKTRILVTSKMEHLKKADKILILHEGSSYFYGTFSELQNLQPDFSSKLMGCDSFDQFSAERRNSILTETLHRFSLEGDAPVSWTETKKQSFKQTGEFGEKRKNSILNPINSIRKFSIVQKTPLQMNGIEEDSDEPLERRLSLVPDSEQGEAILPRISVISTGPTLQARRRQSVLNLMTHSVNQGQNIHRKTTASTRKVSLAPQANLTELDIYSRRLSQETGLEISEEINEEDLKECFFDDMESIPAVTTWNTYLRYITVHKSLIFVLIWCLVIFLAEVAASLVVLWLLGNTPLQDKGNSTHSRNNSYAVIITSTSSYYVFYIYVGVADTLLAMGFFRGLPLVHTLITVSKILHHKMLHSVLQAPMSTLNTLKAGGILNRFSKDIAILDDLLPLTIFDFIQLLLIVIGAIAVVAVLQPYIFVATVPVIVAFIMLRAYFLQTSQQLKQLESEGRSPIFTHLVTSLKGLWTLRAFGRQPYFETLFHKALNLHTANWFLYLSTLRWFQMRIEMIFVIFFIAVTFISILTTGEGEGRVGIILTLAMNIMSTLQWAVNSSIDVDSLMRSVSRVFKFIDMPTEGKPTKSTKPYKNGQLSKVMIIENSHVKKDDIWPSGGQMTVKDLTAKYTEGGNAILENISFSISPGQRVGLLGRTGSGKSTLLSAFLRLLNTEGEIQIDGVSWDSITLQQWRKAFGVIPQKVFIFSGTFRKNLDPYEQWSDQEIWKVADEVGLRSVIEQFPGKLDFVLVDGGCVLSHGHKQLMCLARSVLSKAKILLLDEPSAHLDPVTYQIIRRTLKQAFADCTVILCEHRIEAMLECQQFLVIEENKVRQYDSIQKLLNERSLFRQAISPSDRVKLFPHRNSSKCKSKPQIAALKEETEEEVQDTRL
The experiment in a line: CFTR activation assay: short-circuit current measurements (Ussing chamber) in CFBE cells treated 24 h with CFTR modulator(s) plus compound. The conditions noted are these: for F508del-CFTR activity as percentage of F508del-CFTR activity in the presence of Trikafta alone (100%): CFE cells, with Trikafta; for F508del-CFTR activity ('inhibition shift' induced by CFTR-172) in reference to the CFTR activity induced by Trikafta® alone (value=100): substance with R1 = [drawing 9], CFBE cells, with Trikafta®. The class given is cell-based. The method, then:
• FIG 1. represents the conductance measurement as a function of time for assessing the activity of F508del-CFTR in CFBE cells using the Ussing chamber as set forth in example 13. Cells are incubated for 24 hours with either Trikafta® alone or Trikafta® + a compound of formula (I) as defined herein after. Conductance is measured as a function of time. […] This is the measure which are reported in all Tables shown below. • FIG 2. The correcting effect of Trikafta® on F508del-CFTR in a pulmonary epithelial cell line derived from a F508del-CFTR CF patient was tested as set forth in example 13 herein after in the presence of increasing concentrations of compound (44) as defined herein after and compound (107) as defined herein after. Dose-response curves were built from the activation and inhibition data (see FIG. 1). 100% represents the activity of Trikafta® alone. • FIG 3. […] CFE cells were treated with Trikafta® 100%, 33%, or 11%, in the absence or presence of 1 µM of compound (107). F508del-CFTR activity was monitored as described in the Experimental section and above. Activity is reported as percentage of δF508del-CFTR activity in the presence of Trikafta® alone (100%). The fold change over the activity of Trikafta® alone is indicated in parentheses. • FIG 4. The correcting effect of further CFTR modulators than Trikafta®, i.e. Galapagos compounds as defined herein after (GLPG 222 (G1), GLPG 1837 (G2), GLPG 2451 (G3)) (1 µM each) on F508del-CFTR in a pulmonary epithelial cell line derived from a F508del-CFTR CF patient was tested as set forth in example 13 herein after in the presence of increasing concentrations of compound (107) as defined herein after. Dose-response curves were built from the activation and inhibition data (see FIG. 1). 100% represents the activity of each CFTR modulator alone.
The activity of F508del-CFTR was indeed estimated according to the method described below in example 13. This method makes use of CFBE cells, an immortalized cell line generated from bronchial epithelium of a CF patient homozygous for F508del-CFTR [Kunzelmann, K. et al., 1993. An immortalized cystic fibrosis tracheal epithelial cell line homozygous for the F508del CFTR mutation. Am. J. Respir. Cell Mol. Biol. 8, 522-529.]. Cells are exposed for 24 hours to a combination of Trikafta® and a compound of formula (I) as defined herein after to be evaluated, and the activity of F508del-CFTR is measured by conductance in a Ussing chamber. The activation is initiated by addition of Forskolin (1 µM). […] All compounds tested were evaluated in combination with Trikafta®. In most instances, compounds were tested in triplicates at 0.1, 1 and 10 µM.
Wild-type CFBE cells (containing full-length, unmutated CFTR) are used as a reference.
F508del-CFTR expressing cells used in this present study were treated with CFTR modulators 24 h prior the experiments. The following CFTR modulators were used: Vx770 (Ivacaftor) (Selleckchem, S 1144) (Selleckchem, 24, rue des Tuileries, BP684, 67460 Souffelweyersheim, France), Vx445 (Elexacaftor) (Selleckchem, SE-S8851), Vx661 (Tezacaftor) (TargetMol, HY-15448) (TargetMol, Tebu-bio, 39 rue de Houdan, BP 15, 78612 Le-Perray-en-Yvelines cedex, France). Trikafta® is the combination of 1 µM Vx770, 3 µM Vx 445 and […] Vx661.
CFBE cell line stably expressing F508del-CFTR or WT-CFTR (CFBE WT-CFTR) were grown at 37°C in 5% CO2 - 95% air and media was replaced every 2 days.

In the next data set the target is CDK2 (Homo sapiens, UniProt P24941). The experiment in a line: Kinase inhibition, dose-response. Particulars: > 10: no inhibition at 10 µM, the highest dose tested. The data set is classed as biochemical. As for the experimental part:
(§1) All compounds were additionally tested over a range of concentrations for their ability to inhibit a series of 14 kinases. IC50 values were calculated from the dose-response curves and are reported in µM. > 10, no inhibition at 10 µM, the highest dose tested (see table 6 below). [drawing 409] Table 5: CFE cells were treated with Trikafta in the presence of increasing concentrations of various compounds and their N7-methylated counterparts. Their F508del-CFTR activity is reported as percentage of F508del-CFTR activity in the presence of Trikafta alone (100%).

The target of another data set is CDK7 (Homo sapiens, UniProt P50613). The experiment in a line: Kinase inhibition, dose-response. The class given is biochemical. The conditions noted are these: > 10: no inhibition at 10 µM, the highest dose tested. As for the experimental part: as §1
Another data set addresses CDK9 (Homo sapiens, UniProt P50750). The experiment in a line: Kinase inhibition, dose-response. The class given is biochemical. The conditions noted are these: > 10: no inhibition at 10 µM, the highest dose tested. As for the experimental part: as §1
In a further data set the target is CK1α1 (Homo sapiens, UniProt P48729). The experiment in a line: Kinase inhibition, dose-response. The data set is classed as biochemical. Particulars: > 10: no inhibition at 10 µM, the highest dose tested. As for the experimental part:
as §1

Another data set concerns the target CK1γ1 (Homo sapiens, UniProt Q9HCP0). The experiment in a line: Kinase inhibition, dose-response. The class given is biochemical. The conditions noted are these: > 10: no inhibition at 10 µM, the highest dose tested. As for the experimental part: as §1
A further data set concerns the target CK1γ2 (Homo sapiens, UniProt P78368). The experiment in a line: Kinase inhibition, dose-response. The data set is classed as biochemical. The conditions noted are these: > 10: no inhibition at 10 µM, the highest dose tested. As for the experimental part: as §1
The target of a further data set is CK1γ3 (Homo sapiens, UniProt Q9Y6M4). The experiment in a line: Kinase inhibition, dose-response. The class given is biochemical. Particulars: > 10: no inhibition at 10 µM, the highest dose tested. As for the experimental part:
as §1

The target of the next data set is CK1δ (Homo sapiens, UniProt P48730). The experiment in a line: Kinase inhibition, dose-response. The data set is classed as biochemical. The conditions noted are these: > 10: no inhibition at 10 µM, the highest dose tested. As for the experimental part:
as §1

The target of the next data set is CK1ε (Homo sapiens, UniProt P49674). The experiment in a line: Kinase inhibition, dose-response. The data set is classed as biochemical. Particulars: > 10: no inhibition at 10 µM, the highest dose tested. The method, then: as §1
Chain of CK1ε (P49674 whole entry): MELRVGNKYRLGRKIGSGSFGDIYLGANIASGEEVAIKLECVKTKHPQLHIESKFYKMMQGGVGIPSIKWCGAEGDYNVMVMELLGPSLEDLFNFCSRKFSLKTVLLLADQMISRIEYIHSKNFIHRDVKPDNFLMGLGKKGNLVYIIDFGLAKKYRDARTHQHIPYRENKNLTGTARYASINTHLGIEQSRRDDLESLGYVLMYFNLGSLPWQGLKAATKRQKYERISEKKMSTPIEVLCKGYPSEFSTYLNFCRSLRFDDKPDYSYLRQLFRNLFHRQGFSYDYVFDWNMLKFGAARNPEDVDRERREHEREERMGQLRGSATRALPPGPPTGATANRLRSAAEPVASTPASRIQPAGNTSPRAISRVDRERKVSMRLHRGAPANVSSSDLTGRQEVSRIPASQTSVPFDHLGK
The target in another data set is CLK1 (Homo sapiens, UniProt P49759). The experiment in a line: Kinase inhibition, dose-response. The class given is biochemical. The conditions noted are these: > 10: no inhibition at 10 µM, the highest dose tested. As for the experimental part:
as §1

The target in the next data set is CLK2 (Homo sapiens, UniProt P49760). The experiment in a line: Kinase inhibition, dose-response. The class given is biochemical. The conditions noted are these: > 10: no inhibition at 10 µM, the highest dose tested. As for the experimental part:
as §1

For another data set, the target named is CLK3 (Homo sapiens, UniProt P49761). The experiment in a line: Kinase inhibition, dose-response. The class given is biochemical. Particulars: > 10: no inhibition at 10 µM, the highest dose tested. As for the experimental part:
as §1

For the next data set, the target named is DYRK1A (Homo sapiens, UniProt Q13627). The experiment in a line: Kinase inhibition, dose-response. The conditions noted are these: > 10: no inhibition at 10 µM, the highest dose tested. The class given is biochemical. The method, then: as §1
A further data set concerns the target CLK4 (Homo sapiens, UniProt Q9HAZ1). The experiment in a line: Kinase inhibition, dose-response. The data set is classed as biochemical. From the text: All compounds were additionally tested over a range of concentrations for their ability to inhibit a series of 14 kinases. […] Their F508del-CFTR activity is reported as percentage of F508del-CFTR activity in the presence of Trikafta alone (100%).

The next data set can be described thus: LogD determined by HPLC. The data set is classed as physicochemical.

Chain of CK1α1 (P48729 whole entry): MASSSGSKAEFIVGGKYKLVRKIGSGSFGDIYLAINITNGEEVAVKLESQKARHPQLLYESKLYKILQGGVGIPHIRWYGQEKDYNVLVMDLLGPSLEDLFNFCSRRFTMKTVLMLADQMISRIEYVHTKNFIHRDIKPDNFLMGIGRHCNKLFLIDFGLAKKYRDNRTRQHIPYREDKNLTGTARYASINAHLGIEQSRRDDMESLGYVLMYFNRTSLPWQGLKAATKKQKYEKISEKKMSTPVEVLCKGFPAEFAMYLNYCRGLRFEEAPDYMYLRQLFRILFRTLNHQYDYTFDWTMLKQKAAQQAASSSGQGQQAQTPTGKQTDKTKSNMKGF
Chain of CLK3 (P49761 whole entry, species assumed): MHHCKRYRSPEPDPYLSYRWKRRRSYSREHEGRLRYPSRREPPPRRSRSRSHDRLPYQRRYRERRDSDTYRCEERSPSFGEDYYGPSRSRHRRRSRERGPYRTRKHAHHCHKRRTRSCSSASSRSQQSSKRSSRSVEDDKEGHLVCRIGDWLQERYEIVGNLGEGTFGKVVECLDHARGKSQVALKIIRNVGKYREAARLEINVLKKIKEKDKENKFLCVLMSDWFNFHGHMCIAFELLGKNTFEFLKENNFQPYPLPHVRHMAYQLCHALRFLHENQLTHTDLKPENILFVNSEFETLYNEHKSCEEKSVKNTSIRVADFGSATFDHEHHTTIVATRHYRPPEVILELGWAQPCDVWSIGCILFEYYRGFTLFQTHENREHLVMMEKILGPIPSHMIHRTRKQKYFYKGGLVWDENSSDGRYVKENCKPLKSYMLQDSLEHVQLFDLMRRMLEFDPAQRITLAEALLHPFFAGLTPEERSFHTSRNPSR
Chain of CK1γ3 (Q9Y6M4 whole entry): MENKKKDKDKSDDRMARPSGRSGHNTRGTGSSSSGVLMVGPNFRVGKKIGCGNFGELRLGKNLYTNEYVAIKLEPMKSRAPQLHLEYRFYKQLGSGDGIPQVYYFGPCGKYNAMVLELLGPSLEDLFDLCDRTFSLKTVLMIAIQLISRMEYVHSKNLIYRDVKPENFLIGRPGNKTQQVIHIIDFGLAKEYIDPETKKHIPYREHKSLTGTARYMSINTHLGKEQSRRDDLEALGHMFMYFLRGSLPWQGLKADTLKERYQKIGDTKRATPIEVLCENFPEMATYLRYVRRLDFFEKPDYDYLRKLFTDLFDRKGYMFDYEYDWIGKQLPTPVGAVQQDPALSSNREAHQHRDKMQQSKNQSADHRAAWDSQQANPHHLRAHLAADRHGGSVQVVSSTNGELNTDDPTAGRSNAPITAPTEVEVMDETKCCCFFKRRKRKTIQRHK
Chain of CDK9 (P50750 whole entry, species assumed): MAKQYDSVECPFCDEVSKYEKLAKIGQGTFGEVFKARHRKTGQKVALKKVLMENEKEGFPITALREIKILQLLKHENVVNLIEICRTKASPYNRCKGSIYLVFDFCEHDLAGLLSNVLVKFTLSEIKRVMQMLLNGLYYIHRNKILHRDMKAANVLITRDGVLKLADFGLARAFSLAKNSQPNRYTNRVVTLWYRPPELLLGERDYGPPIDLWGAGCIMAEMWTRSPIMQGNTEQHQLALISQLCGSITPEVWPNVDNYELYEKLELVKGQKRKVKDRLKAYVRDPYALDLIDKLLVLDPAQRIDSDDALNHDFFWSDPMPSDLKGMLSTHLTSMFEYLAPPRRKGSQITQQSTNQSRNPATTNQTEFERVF
Chain of CDK9 (O60563 whole entry partner, species assumed): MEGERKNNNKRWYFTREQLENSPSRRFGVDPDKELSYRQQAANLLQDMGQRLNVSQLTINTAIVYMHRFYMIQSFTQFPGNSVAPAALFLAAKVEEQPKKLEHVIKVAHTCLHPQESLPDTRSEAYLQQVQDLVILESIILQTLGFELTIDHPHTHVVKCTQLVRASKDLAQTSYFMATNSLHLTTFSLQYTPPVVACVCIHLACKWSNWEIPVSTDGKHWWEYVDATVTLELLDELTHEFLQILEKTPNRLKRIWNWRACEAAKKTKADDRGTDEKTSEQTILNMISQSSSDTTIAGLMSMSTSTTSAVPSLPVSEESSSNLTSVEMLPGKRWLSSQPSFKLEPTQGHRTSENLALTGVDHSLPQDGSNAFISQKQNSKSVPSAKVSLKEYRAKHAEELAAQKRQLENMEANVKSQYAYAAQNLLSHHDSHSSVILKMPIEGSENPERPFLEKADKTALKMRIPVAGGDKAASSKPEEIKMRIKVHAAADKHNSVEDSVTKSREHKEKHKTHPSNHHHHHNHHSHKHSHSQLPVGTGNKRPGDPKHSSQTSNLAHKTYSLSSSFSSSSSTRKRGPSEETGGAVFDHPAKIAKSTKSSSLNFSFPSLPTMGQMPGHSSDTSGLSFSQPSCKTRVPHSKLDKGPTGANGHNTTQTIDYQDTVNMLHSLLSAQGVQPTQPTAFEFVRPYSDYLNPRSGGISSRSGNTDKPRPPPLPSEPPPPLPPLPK
Chain of CLK4 (Q9HAZ1 whole entry, species assumed): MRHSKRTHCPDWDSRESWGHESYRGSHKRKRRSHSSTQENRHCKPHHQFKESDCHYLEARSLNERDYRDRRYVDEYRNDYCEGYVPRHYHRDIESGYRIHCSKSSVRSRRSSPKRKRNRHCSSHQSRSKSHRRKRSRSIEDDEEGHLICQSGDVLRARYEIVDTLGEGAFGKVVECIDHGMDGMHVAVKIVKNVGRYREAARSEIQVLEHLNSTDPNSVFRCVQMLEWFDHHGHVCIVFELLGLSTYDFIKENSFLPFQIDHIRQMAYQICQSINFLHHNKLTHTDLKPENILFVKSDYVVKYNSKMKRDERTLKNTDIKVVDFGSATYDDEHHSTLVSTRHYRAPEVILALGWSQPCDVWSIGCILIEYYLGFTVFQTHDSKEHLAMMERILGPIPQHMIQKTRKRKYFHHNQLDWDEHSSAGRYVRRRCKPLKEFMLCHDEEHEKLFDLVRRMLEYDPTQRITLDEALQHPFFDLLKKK

In the case of `CC(C)c1cnc2c(NCc3ccccc3)nc(N[C@@H]3CCOC3)nn12` [compound 19, N4-Benzyl-7-isopropyl-N2-[(3R)-tetrahydrofuran-3-yl]imidazo[2,1-f][1,2,4]triazine-2,4-diamine], the “F508del-CFTR activity as percentage of F508del-CFTR activity in the presence of Trikafta alone (100%)” value at F508del-CFTR (concentration 0.1 µM) came to 112.0%; on F508del-CFTR (concentration 1 µM) it was 122.2%; on F508del-CFTR (concentration 10 µM), 155.6%. For the same compound, the 50% inhibitory concentration (IC50) against CDK2 is 1280 nM; against CDK7 it was 496 nM; against CDK9, 3180 nM; on CK1α1 it was above 10000 nM; on CK1γ1 it was above 10000 nM; against CK1γ2, above 10000 nM. Further, the IC50 is above 10000 nM against CK1γ3; 594 nM against CK1δ; 1320 nM on CK1ε; 1170 nM on CLK1; 1050 nM at CLK2; above 10000 nM against CLK3. Further, the IC50 against DYRK1A was above 10000 nM; at CLK4 (> 10: no inhibition at 10 µM, the highest dose tested, read-out: IC50 CLK4), 1840 nM.
For the compound `CC(C)n1cnc2c(NCc3ccccc3)cc(N[C@@H]3CCOC3)nc21` [(A), reference compound], the “F508del-CFTR activity ('inhibition shift' induced by CFTR-172) in reference to the CFTR activity induced by Trikafta® alone (value=100)” value at F508del-CFTR (C 0.1 µM) worked out at 82.7; on F508del-CFTR (C 1 µM), 107.8; on F508del-CFTR (C 10 µM) it was 114.5.
As for `CC(C)c1cnc2c(NCc3ccccc3)nc(Nc3ccnn3C)nn12` [compound 107, N4-Benzyl-7-isopropyl-N2-(2-methylpyrazol-3-yl)imidazo[2,1-f][1,2,4]triazine-2,4-diamine], the “F508del-CFTR activation with diluted Trikafta®” value at F508del-CFTR (Trikafta® 100%, 33% or 11%, absence or presence of 1 µM compound, FIG 3) is on record as “compensates the dilution of Trikafta®”. The compound also yielded a chromatographic logD in the data set “LogD determined by HPLC” of 2.98.
As to `CC(C)c1cnn2c(NCc3ccccc3)nc(N[C@@H]3CCOC3)nc12` [(C), reference compound], the “F508del-CFTR activity ('inhibition shift' induced by CFTR-172) in reference to the CFTR activity induced by Trikafta® alone (value=100)” value on F508del-CFTR (C 0.1 µM) is recorded as 109.7; at F508del-CFTR (C 1 µM), 99.5; at F508del-CFTR (C 10 µM) it was 116.1.
Consider `CC(C)c1cnc2c(N(C)Cc3ccccc3)nc(NC3CCOCC3)nn12` [compound 49], for which the entries for the “F508del-CFTR activity as percentage of F508del-CFTR activity in the presence of Trikafta alone (100%)” value on F508del-CFTR (concentration 0.1 µM), at F508del-CFTR (concentration 1 µM) and at F508del-CFTR (concentration 10 µM) were 113.0%, 125.9% and 147.1%, respectively. The half-maximal inhibitory concentration (IC50) against CDK2, against CDK7, on CDK9, at CK1α1, on CK1γ1 and against CK1γ2 was above 10000 nM throughout. Moreover, the 50% inhibitory concentration (IC50) on CK1γ3, against CK1δ, on CK1ε, against CLK1, on CLK2 and against CLK3 was above 10000 nM each time. In addition, the IC50 was above 10000 nM on DYRK1A and above 10000 nM at CLK4 (read-out: IC50 CLK4, > 10: no inhibition at 10 µM, the highest dose tested).
Take `CC(C)c1cnc2c(NCc3ccccc3)nc(NC3CCOCC3)nn12` [compound 44]: the IC50 against CDK2 is 579 nM; at CDK7, 207 nM; against CDK9, 1170 nM; at CK1α1, above 10000 nM; at CK1γ1, above 10000 nM; at CK1γ2 it was above 10000 nM. The half-maximal inhibitory concentration (IC50) is above 10000 nM against CK1γ3; 626 nM on CK1δ; 1730 nM against CK1ε; 537 nM against CLK1; 493 nM against CLK2; above 10000 nM on CLK3. Further, the IC50 at DYRK1A worked out at 6530 nM; on CLK4, 580 nM.
As to `CC(C)c1cnn2c(NCc3ccccc3)cc(N[C@@H]3CCOC3)nc12` [(D), reference compound], the “F508del-CFTR activity ('inhibition shift' induced by CFTR-172) in reference to the CFTR activity induced by Trikafta® alone (value=100)” value on F508del-CFTR (C 0.1 µM) worked out at 98.0; at F508del-CFTR (C 1 µM), 110.1; at F508del-CFTR (C 10 µM) it was 98.7.
For the compound `CC(C)c1cnc2c(NCc3ccccc3)nc(NCCCN(C)C)nn12` [compound 5, N4-Benzyl-N2-[3-(dimethylamino)propyl]-7-isopropyl-imidazo[2,1-f][1,2,4]triazine-2,4-diamine], the chromatographic logD in “LogD determined by HPLC” amounted to 2.1.
In the data set “LogD determined by HPLC”, `CC(C)c1cnc2c(NCc3ccccc3)nc(NC3CCCCC3)nn12` [compound 59, N4-Benzyl-N2-cyclohexyl-7-isopropyl-imidazo[2,1-f][1,2,4]triazine-2,4-diamine] returned a chromatographic logD of 5.47.
With `CC(C)c1cnc2c(NCc3ccccc3)nc(N3CCC(O)C3)nn12` (centres unmarked) [compound 76, 1-[4-(Benzylamino)-7-isopropyl-imidazo[2,1-f][1,2,4]triazin-2-yl]pyrrolidin-3-ol], the chromatographic logD in “LogD determined by HPLC” amounted to 3.16.
